Source: patent US20120010296A1, “TREATING VARIOUS DISORDERS WITH CATECHOL-O-METHYL-TRANSFERASE INHIBITORS” (priority 2009, published 2012)

What was measured:
Type in all cases: in vivo, human
[1] = system: kleptomania; assay: Example 3: case report, treatment of kleptomania (K-SAS, stealing behavior); conditions: one patient
Text: Patient was a married, college-educated person with no children. They presented for psychiatric evaluation for “out-of-control” shoplifting that had been going on since early adulthood. Although never arrested for their shoplifting, they reported stealing approximately 90% of the times when they went shopping. […] They denied wanting or needing the items and in fact usually discarded them in the trash when they returned home. They reported that when they initially stole items in early adulthood the act gave them a “rush” or a thrill. Over the years, they described the behavior as “automatic” and without awareness for the consequences.
The diagnosis of kleptomania was confirmed using the Structured Clinical Interview for Kleptomania. Patient also underwent a comprehensive psychiatric evaluation using the Structured Clinical Interview for DSM-IV (SCID-I and SCID-II). […] Severity of kleptomania was assessed using the Kleptomania Symptom Assessment Scale (K-SAS) at baseline and periodically through […] follow-up. The K-SAS score at baseline was 28 (moderate severity).
(§1) Over a period of two years, patient underwent serial trials of several medications. […] “I have gone to stores several times without stealing anything.” After 6 weeks, the benefit seemed to wane and their dose was increased to 100 mg po bid. […] They have been maintained on that dose for 5 months without stealing. They report mild urges to steal when in a store but feels able to control their behavior. Patient's K-SAS score has consistently been 6-8 over the last few months.

[2] = system: pathological gambling; assay: Example 2: performance on cognitive tasks (IDED, SST) in pathological gamblers treated with tolcapone
Text: (§2) The cognitive tasks require subjects to disengage responding from the previously correct dimension in favor of responding to a novel dimension. Failure on the ED task may be due to the inability of the individual to disengage from a previously rewarding process thus perseverating on the incorrect response pattern.

[3] = system: nicotine dependent problem gambling subjects; assay: Change in cigarette smoking in nicotine dependent problem gambling subjects taking tolcapone; conditions: 10-Week Endpoint (n = 6); baseline 25.8 ± 11.1
[4] = system: attention deficit disorder (ADD); assay: Example 4: case report, treatment of ADD; conditions: one patient
Protocol: Patient was a married, person, currently in nursing school. They have had life-long difficulties with organizing tasks, following through on instructions and completing tasks. Learning in classes and performing school work has been extremely difficult. Patient would tell each and every teacher that they have attention deficit disorder (ADD), they are slow to understand and that they need more time to complete examinations. Patient has been taking methylphenidate ([…]) 10 mg twice a day to cope with these difficulties. […] Patient said “I was able to answer 12 out of 12 questions, that was the first time for me.” After one week, patient increased tolcapone does to 100 mg twice a day. […] They found themself organizing future tasks in orderly manner and also completing the tasks mush more efficiently, something they just have not been able to do prior to now. Their spouse noticed this and commented this to them. […] Patient is much satisfied with the results of the tolcapone treatment. Follow-up interview two weeks post tolcapone 100 mg twice a day: “I got over my classes at 3:[…]/ I stayed '[…] just fired off this assignment. I met all objectives. I got 15 out of 15 points. This has never happened to me before. Prior to tolcapone, I would scramble, hodge-podge, . . . I would just give up. The whole thing is getting better and better. I feel that I can organize things better now.” “Look what my teacher wrote, 'very well organized'.” 30 out of 30, 27 out of 27 points! “I never got these assignments done. I can't explain it but this is phenomenal.” “I am sleeping better now, my anxiety has gone down, I have more energy now.” This is a patient who had been on methylphenidate 10 mg twice a day.

[5] = Example 3: laboratory testing of liver aminotransferases every two weeks; conditions: one patient
Protocol: as §1

[6] = system: pathological gambling; assay: Example 1 / Tolcapone Study: cognitive tasks (IED set shift, SST) before and after treatment
Text: as §2, with “the” for “the ED”

[7] = system: pathological gambling; assay: Example 2: tolcapone study in pathological gambling, primary and secondary measures
Text: The effectiveness of COMT inhibitors to treat PG can be determined using known assessments, e.g., the Clinical Global Impression Scale (CGI), Yale Brown Obsessive Compulsive Scale Modified for Pathological Gambling (PG-YBOCS), the Gambling Symptom Assessment Scale (G-SAS), the Sheehan Disability Scale (SDS), the Hamilton Anxiety Rating Scale (HAM-A), the Hamilton Depression Rating Scale (HAM-D), the Perceived Stress Scale (PSS; used at baseline and study endpoint), and the Quality of Life Inventory (QOLI; used at baseline and study endpoint). In Example 2, twelve subjects have been enrolled with four of these individuals currently receiving tolcapone and yet to complete the study. […] In most open-label studies of pathological gambling, response rates are approximately 60-65%. Decrease in gambling symptoms was from a mean of 20.4 to 9.25 at endpoint using the PG-YBOCS. This compares to a mean decrease of 6 points on this same scale when used in treatment studies involving other medications.

[8] = system: pathological gambling; assay: Example 1: open-label tolcapone study in pathological gambling (PG-YBOCS)
Text: The effectiveness of COMT inhibitors to treat PG can be determined using known assessments, e.g., the Clinical Global Impression Scale (CGI), Yale Brown Obsessive Compulsive Scale Modified for Pathological Gambling (PG-YBOCS), the Gambling Symptom Assessment Scale (G-SAS), the Sheehan Disability Scale (SDS), the Hamilton Anxiety Rating Scale (HAM-A), the Hamilton Depression Rating Scale (HAM-D), the Perceived Stress Scale (PSS; used at baseline and study endpoint), and the Quality of Life Inventory (QOLI; used at baseline and study endpoint). In example 1, six subjects have been enrolled in a study to determine the effects of administration of the COMT inhibitor tolcapone on gambling. Subjects receive 100 mg-300 mg of tolcapone by mouth per day for 8 weeks, which can be administered either once per day for the 100 mg dose, or multiple (e.g., 3) times per day for higher doses (e.g., 300 mg dose). Five of the 6 (83%) subjects have “responded” (i.e., greater than 35% on the primary outcome measure, the PG-YBOCS) to tolcapone. In most open-label studies of pathological gambling, response rates are approximately 65%. Decrease in gambling symptoms was from a mean of 20.4 to 8.0 at endpoint using the PG-YBOCS. This compares to a mean decrease of 6 points on this same scale when used in treatment studies involving other medications. The mean effective dose was 140 mg/day.

In the case of `CC1(C)O[C@@H]2[C@@H](CO[C@@]3(COS(N)(=O)=O)OC(C)(C)O[C@@H]23)O1` [Topiramate, topiramate], the “K-SAS score (urges to steal)” value ([1]; monotherapy, 12 weeks at 150 mg/day, baseline 28) is reported as 21.

With `Cc1ccc(C(=O)c2cc(O)c(O)c([N+](=O)[O-])c2)cc1` [tolcapone] the “extradimensional set shift task (cognitive measures)” value ([2]; Example 2, neurocognitive results) was “significant improvement”, the “SST directional errors at endpoint” value ([2]; endpoint, baseline 2 ± 3.07) was 4.71 ± 8.24 and the “IDED Stages completed at endpoint” value ([2]; endpoint, baseline 8.5 ± 0.92) was 8.86 ± 0.38. The “IDED total errors (adjusted) at endpoint” value ([2]; endpoint, baseline 26.38 ± 21.84) was 20.14 ± 11.77, the “SST SSRT at endpoint” value ([2]; endpoint, baseline 149.8 ± 41.57) was 161.37 ± 29.11 and the “SST median go reaction time at endpoint” value ([2]; endpoint, baseline 470.5 ± 111.67, in ms (unit assumed)) was 476.64 ± 138.11. For the same molecule, the “Cigarettes smoked per day (mean ± SD)” value [3] was 3.3 ± 8.2, the “ADD symptoms reported by the patient” value ([4]; 100 mg in the morning, added to methylphenidate 10 mg twice a day) was “improved sense of well-being” and the “ADD symptoms reported by the patient” value ([4]; 100 mg twice a day) was “further improvement in their symptoms”. For the same molecule, the side effects ([4]; 100 mg twice a day) was “no side effects”, the “attentional issues, compared with methylphenidate” value ([4]; chose to stay on tolcapone instead of methylphenidate) was “works better for their attentional issues” and the “changes in alanine aminotransferase or aspartate aminotranferase” value [5] was “no changes”. The “IED Total errors (stage 6), ID shift, Mean ± SD at EOS” value ([6]; EOS, baseline 0.5 ± 1) was 0 ± 0, the “SST Direction errors on stop and go trials, Mean ± SD at EOS” value ([6]; EOS, baseline 2.75 ± 4.27) was 6.5 ± 11.03 and the “IED Total errors (stage 8), ED shift, Mean ± SD at EOS” value ([6]; EOS, baseline 6.75 ± 5.91) was 3.5 ± 4.51. The “IED Stages completed, Mean ± SD at EOS” value ([6]; EOS, baseline 9 ± 0) was 9 ± 0, the “IED Total errors (adjusted), Mean ± SD at EOS” value ([6]; EOS, baseline 12.75 ± 6.5) was 17 ± 7.16 and the “IED Total errors, Mean ± SD at EOS” value ([6]; EOS, baseline 12.75 ± 6.5) was 17 ± 7.16. The “SST Median correct RT on GO trials, Mean ± SD at EOS” value ([6]; EOS, baseline 530.5 ± 132.91) was 529 ± 155.66, the “extradimensional set shift task (cognitive measures)” value ([6]; Example 1) was “significant improvement” and the mean effective dose ([7]; Example 2, pathological gambling, compared to 600 mg/day used for Parkinson's) was 141 mg/day. The “PG-YBOCS mean at endpoint (decrease in gambling symptoms)” value ([7]; Example 2, from a baseline mean of 20.4) was 9.25, the “subjects who responded (greater than 35% on the primary outcome measure, the PG-YBOCS)” value ([7]; Example 2, seven of 8 subjects who have completed the study) was 87.5% and the “CGI-Improvement (Investigator), mean (SD) at endpoint” value ([7]; endpoint) was 1.88 (0.83). For the same molecule, the “CGI-Improvement (Patient), mean (SD) at endpoint” value ([7]; endpoint) was 2.19 (1.13), the “Clinical Global Impression Severity, mean (SD) at endpoint” value ([7]; endpoint, baseline 4.38 (0.74), p-value 0.0098) was 3 (1.07) and the “HAM-A, mean (SD) at endpoint” value ([7]; endpoint, baseline 8.88 (3.14), p-value 0.052) was 5.63 (2.97). The “HAM-D, mean (SD) at endpoint” value ([7]; endpoint, baseline 9 (2.67), p-value 0.033) was 5.63 (3.02), the “PG-YBOCS behavior Subscale score, mean (SD) at endpoint” value ([7]; endpoint, baseline 9.63 (3.2), p-value 0.0003) was 3.63 (3.96) and the “PG-YBOCS urges/thought subscale score, mean (SD) at endpoint” value ([7]; endpoint, baseline 10.88 (2.23), p-value 0.0003) was 5.38 (2.33). The “Sheehan Disability Scale total score, mean (SD) at endpoint” value ([7]; endpoint, baseline 16.75 (6.84), p-value 0.003) was 5.38 (5.90), the “PG-YBOCS total score, mean (SD) at endpoint” value ([7]; endpoint, baseline 20.5 (3.38), p-value 0.0002) was 9.25 (5.3) and the “G-SAS total score, mean (SD) at endpoint” value ([7]; endpoint, baseline 27.13 (7.54), p-value 0.045) was 18.63 (7.91). For the same molecule, the mean effective dose ([8]; Example 1, pathological gambling) was 140 mg/day, the “subjects who responded (greater than 35% on the primary outcome measure, the PG-YBOCS)” value ([8]; Example 1, 100 mg-300 mg per day by mouth for 8 weeks, five of the 6 subjects) was 83% and the “PG-YBOCS mean at endpoint (decrease in gambling symptoms)” value ([8]; Example 1, from a baseline mean of 20.4) was 8.0. The “PG-YBOCS, Mean ± SD at EOS” value ([8]; whole group analysis, after treatment (EOS), baseline 21.5 + 3.11) was 10.25 ± 6.18, the stealing behavior ([1]; 100 mg po bid, after 3 weeks on the higher dose, maintained for 5 months without stealing) was “no stealing behavior” and the K-SAS score ([1]; 100 mg po bid, over the last few months, baseline 28 (moderate severity)) was 6-8. For the same molecule, the stealing behavior ([1]; 100 mg/day monotherapy, after 3 weeks) was “significant reductions in stealing behavior”.
